Laboratory results from paper PMC5102573 (Clinical Pharmacology and Therapeutics, 2016).
Where “and” joins values, the source holds several entries; their conditions need not be identical. Equal entries are not always repeated. Structures can show the parent of a compound that is named as a salt. Where two headings read alike, the source gives them in different places. One block for each compound: values may come before it.

Experiments:
[1] = rosuvastatin 10 mg q.d. with metformin 750 mg q.d.; cited from earlier work
[2] = 5 mg rosuvastatin and 600 mg rifampin; cited from earlier work
[3] = cocktail T1 vs alone, geometric mean ratio
[4] = cocktail T2 vs alone, geometric mean ratio
[5] = cocktail T3 vs alone, geometric mean ratio

CLR,0-24 decrease in cocktails vs drug alone (Urinary excretion; cocktails T1 and T3 vs alone): 10–18%
fe0-36 decrease in cocktails vs drug alone (Urinary excretion; cocktails T1 and T3 vs alone): 10–18%
Structure (SMILES): CN(C)C(=N)N=C(N)N [Metformin, metformin hydrochloride]

CLR,0-36 in the different treatment periods (Urinary excretion; alone vs cocktails): comparable
fe0-36, gMean (Urinary excretion; analyte given in Test Cocktail 1): 7.93%
fe0-36, gMean (Urinary excretion; drug given alone, fraction excreted in urine 0-36 h): 5.45%
fe0-36 in cocktails T1, T2, and T3 compared to drug alone (Urinary excretion; in vivo): higher
AUC0-tz increase (higher) in cocktail vs drug alone [3]: 43.4% and 43%
AUC0-∞ increase in cocktail vs drug alone [3]: 27.8%
Cmax increase (higher) in cocktail vs drug alone [3]: 38.6% and 39%
AUC0-tz increase in cocktail vs drug alone [4]: 50.9%
AUC0-∞ increase in cocktail vs drug alone [4]: 37.4%
Cmax increase in cocktail vs drug alone [4]: 37.9%
AUC0-tz increase in cocktail vs drug alone [5]: 45.6%
AUC0-∞ increase in cocktail vs drug alone [5]: 23.3%
Cmax increase in cocktail vs drug alone [5]: 40.1%
AUC0-tz, Ratio T/R (relative bioavailability) (test cocktail T1 vs drug alone): 143.39%
AUC0-∞, Ratio T/R (relative bioavailability) (test cocktail T1 vs drug alone): 127.83%
Cmax, Ratio T/R (relative bioavailability) (test cocktail T1 vs drug alone): 138.57%
AUC0-tz, Ratio T/R (relative bioavailability) (test cocktail T2 vs drug alone): 150.87%
AUC0-∞, Ratio T/R (relative bioavailability) (test cocktail T2 vs drug alone): 137.43%
Cmax, Ratio T/R (relative bioavailability) (test cocktail T2 vs drug alone): 137.93%
AUC0-tz, Ratio T/R (relative bioavailability) (test cocktail T3 vs drug alone): 145.61%
AUC0-∞, Ratio T/R (relative bioavailability) (test cocktail T3 vs drug alone): 123.25%
Cmax, Ratio T/R (relative bioavailability) (test cocktail T3 vs drug alone): 140.05%
Structure (SMILES): CC(C)c1nc(N(C)S(C)(=O)=O)nc(-c2ccc(F)cc2)c1/C=C/[C@@H](O)C[C@@H](O)CC(=O)O [Rosuvastatin, rosuvastatin]
effect of metformin on AUCτ [1]: did not alter
increase of geometric mean Cmax,ss caused by metformin [1]: 23%
increase of plasma AUC0-24 with rifampin [2]: 5.2 fold
increase of plasma Cmax with rifampin [2]: 9.9 fold

urinary excretion parameters fe0-36 and CLR,0-36 between the treatments (Urinary excretion; alone vs cocktails): comparable
AUC0-tz decrease, cocktail T3 vs cocktail T1 (T3 vs T1): 22.6%
Cmax decrease, cocktail T3 vs cocktail T1 (T3 vs T1): 12.2%
median tmax (after all treatments (alone and cocktails)): 1.0 h
AUC0-tz decrease in cocktail vs drug alone (cocktail T3 vs alone (R)): 17%
Cmax decrease in cocktail vs drug alone (cocktail T3 vs alone (R)): 11.4% and 11%
Structure (SMILES): C[C@H]1O[C@@H](O[C@H]2[C@@H](O)C[C@H](O[C@H]3[C@@H](O)C[C@H](O[C@H]4CC[C@@]5(C)[C@H](CC[C@@H]6[C@@H]5C[C@@H](O)[C@]5(C)[C@@H](C7=CC(=O)OC7)CC[C@]65O)C4)O[C@@H]3C)O[C@@H]2C)C[C@H](O)[C@@H]1O [Digoxin, digoxin]
